Laboratory results reported in US20240122932A1, “Methods of Treating B-Cell Malignancy Using Bcl-2 Inhibitor” (BeiGene Switzerland GmbH, priority 2021, published 2024).

Experiments:
[1] = test system: JeKo-1 human mantle cell lymphoma (MCL) subcutaneous xenograft; experiment: JeKo-1 human MCL subcutaneous xenograft model, Bcl-2 inhibitor with BTK inhibitor; type: in vivo, NCG mice; settings: for TGI (%): day 21
Procedure: JeKo-1 cells were maintained as suspension cell cultures at 37° C. in a 5% CO2 atmosphere. Five to six-week-old female NCG mice were purchased from Gempharmatech of Information Technology Center. All animals were maintained under specific pathogen free (SPF) “full barrier” condition with free access to food and water. […] Mice were fed with complete granulated feed with Co60 radiosterilization (Beijing Ke Ao Xie Li Feed Co., Ltd.). All experiments were carried out in accordance with BeiGene's IACUC.
Re-suspended cells were placed on ice prior to inoculation. […] Each animal was injected subcutaneously with 1×10^7 cells in 200 μL of cell suspension in the right front flank via a 26-gauge needle. After implantation, primary tumor volume was measured in two dimensions using a caliper.
Transplanted animals were randomized into 8 groups with 10 mice per group on day 0 according to transplantation sequence and body weight. […] Treatments were administered by oral gavage (p.o.) in a volume of 10 mL/kg body weight. Body weight was assessed immediately before dosing and volume dosed was adjusted accordingly.
(§1) Individual body weight was recorded twice weekly, with mice being monitored daily for clinical signs of toxicity for the duration of the study. Mice were euthanized using carbon dioxide when their tumor volume reached 2,000 mm^3, the tumor was ulcerated, or body weight loss exceeded 20%.
Tumor volume (TV) was calculated using the formula: TV=0.5×(a×b^2) where a and b are the long and short diameters of the tumor, respectively. […] (treated t=treated tumor volume at time t, vehicle t=vehicle tumor volume at time t)

[2] = test system: RS4;11 Bcl-2G101V KI acute lymphoblastic leukemia (ALL) subcutaneous xenograft; experiment: RS4;11 Bcl-2G101V KI ALL subcutaneous xenograft model; type: in vivo, NCG mice
Procedure: The RS4;11 Bcl-2G101V KI cells are of acute lymphoblastic leukemia (ALL) origin and were screened in house. Cells were grown in RPMI 1640 medium (Corning, Cat #10-040-CVR), supplemented with 10% (v/v) fetal bovine serum (Gibco, Cat #10099-141C), and 100 μg/mL of penicillin and streptomycin (Gibco, Cat #15140-122). […] Five to six-week-old female NCG mice were supplied by GemPharmatech Co., Ltd, Jiangsu, China. All animals were maintained under specific pathogen free (SPF) “full barrier” condition with free access to food and water. Mice were group-housed under a 12 h light:dark cycle (lights on at 08:00 h), at a temperature of 20-26° C. and 37-62% humidity in WC cages (Lingyunboji (Beijing) Technology Co., Ltd.). Mice were fed with complete granulated feed with Co60 radio sterilization (Beijing Ke Ao Xie Li Feed Co., Ltd.).
Re-suspended cells were placed on ice prior to inoculation. The right front flank region of each mouse was cleaned with 75% ethanol prior to cell inoculation. Each animal was injected subcutaneously with 1×10^7 cells in 200 μL of cell suspension in the right front flank via a 26-gauge needle. After implantation, primary tumor volume was measured in two dimensions using a caliper.
Animals were randomly assigned into 7 groups with 8 mice per group according to body weight and tumor volume (around 300 mm^3). The groups consisted of vehicle group, 15, 50 and 100 mg/kg of venetoclax with QD dosing, 15, 50 and 100 mg/kg of Compound 1 with QD dosing. Treatments were administered by oral gavage (p.o.) in a volume of […]. Body weight was assessed immediately before dosing and volume dosed was adjusted accordingly.
as §1
Tumor volume was calculated using the formula: V=0.5×(a×b^2) where a and b are the long and short diameters of the tumor, respectively.

| SMILES | Mean TV (D 21) (mm^3 ± SEM) ([1]; 5 mpk p.o. QD) | Mean TV (D 21) (mm^3 ± SEM) ([1]; 15 mpk p.o. QD) | Mean TV (D 21) (mm^3 ± SEM) ([1]; 50 mpk p.o. QD) | TGI (%) ([1]; 5 mpk p.o. QD, 5 mg/kg) | TGI (%) ([1]; 15 mpk p.o. QD, 15 mg/kg) | TGI (%) ([1]; 50 mpk p.o. QD, 50 mg/kg) | Mean Tumor Volume (Day 10) (mm^3 ± SEM) ([2]; 15 mg/kg QD × 10 p.o.) | TGI (Day 10) ([2]; 15 mg/kg QD × 10 p.o.) | Mean Tumor Volume (Day 10) (mm^3 ± SEM) ([2]; 50 mg/kg QD × 10 p.o.) | TGI (Day 10) ([2]; 50 mg/kg QD × 10 p.o.) | Mean Tumor Volume (Day 10) (mm^3 ± SEM) ([2]; 100 mg/kg QD × 10 p.o.) | TGI (Day 10) ([2]; 100 mg/kg QD × 10 p.o.) |
| --- | --- | --- | --- | --- | --- | --- | --- | --- | --- | --- | --- | --- |
| CC(C)c1ccccc1[C@@H]1CCCN1C1CC2(CCN(c3ccc(C(=O)NS(=O)(=O)c4ccc(NCC5CCC(C)(O)CC5)c([N+](=O)[O-])c4)c(Oc4cnc5[nH]ccc5c4)c3)CC2)C1 (stereo partly drawn) [Compound 1, 2-((1H-pyrrolo[2,3-b]pyridin-5-yl)oxy)-N-((4-((((1r,4r)-4-hydroxy-4-methylcyclohexyl)methyl)amino)-3-nitrophenyl)sulfonyl)-4-(2-((S)-2-(2-isopropylphenyl)pyrrolidin-1-yl)-7-azaspiro[3.5]nonan-7-yl)benzamide] | 1293.3 ± 100.0 mm^3 | 929.5 ± 73.6 mm^3 | 927.5 ± 100.6 mm^3 | 29% | 49% | 49% |  |  |  |  |  |  |
| CC1(C)CCC(CN2CCN(c3ccc(C(=O)NS(=O)(=O)c4ccc(NCC5CCOCC5)c([N+](=O)[O-])c4)c(Oc4cnc5[nH]ccc5c4)c3)CC2)=C(c2ccc(Cl)cc2)C1 [Venetoclax, reference compound] |  |  |  |  |  |  | 976.6 ± 64.0 mm^3 | 44% | 711.8 ± 49.7 mm^3 | 65% | 530.4 ± 75.4 mm^3 | 80% |
